Results as given in US10093678B2, “Azaspiro derivatives as TRPM8 antagonists” (RaQualia Pharma Inc., priority 2014, dated 2018).

The molecules below were run against T1, human TRPM8 (Homo sapiens, UniProt Q7Z2W7) (assay: Menthol-induced Ca2+ influx in HEK293 cells stably expressing human TRPM8). Conditions: 30 microM menthol-induced Ca2+ influx, read-out: IC50 against TRPM8.
T1 construct: expressed in transfected cells; host or cells: HEK293
Format: cell-based
Method in brief: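 IC50 values were fitted from 11-point dose-response data averaged over duplicate wells. Compound was added for 5 min to Fluo4-loaded HEK293 cells carrying stable human TRPM8, in HBSS/HEPES pH 7.4 with probenecid. Intracellular Ca2+ change after 30 microM menthol addition was then imaged on FDSS.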

T1 sequence (Q7Z2W7 whole entry): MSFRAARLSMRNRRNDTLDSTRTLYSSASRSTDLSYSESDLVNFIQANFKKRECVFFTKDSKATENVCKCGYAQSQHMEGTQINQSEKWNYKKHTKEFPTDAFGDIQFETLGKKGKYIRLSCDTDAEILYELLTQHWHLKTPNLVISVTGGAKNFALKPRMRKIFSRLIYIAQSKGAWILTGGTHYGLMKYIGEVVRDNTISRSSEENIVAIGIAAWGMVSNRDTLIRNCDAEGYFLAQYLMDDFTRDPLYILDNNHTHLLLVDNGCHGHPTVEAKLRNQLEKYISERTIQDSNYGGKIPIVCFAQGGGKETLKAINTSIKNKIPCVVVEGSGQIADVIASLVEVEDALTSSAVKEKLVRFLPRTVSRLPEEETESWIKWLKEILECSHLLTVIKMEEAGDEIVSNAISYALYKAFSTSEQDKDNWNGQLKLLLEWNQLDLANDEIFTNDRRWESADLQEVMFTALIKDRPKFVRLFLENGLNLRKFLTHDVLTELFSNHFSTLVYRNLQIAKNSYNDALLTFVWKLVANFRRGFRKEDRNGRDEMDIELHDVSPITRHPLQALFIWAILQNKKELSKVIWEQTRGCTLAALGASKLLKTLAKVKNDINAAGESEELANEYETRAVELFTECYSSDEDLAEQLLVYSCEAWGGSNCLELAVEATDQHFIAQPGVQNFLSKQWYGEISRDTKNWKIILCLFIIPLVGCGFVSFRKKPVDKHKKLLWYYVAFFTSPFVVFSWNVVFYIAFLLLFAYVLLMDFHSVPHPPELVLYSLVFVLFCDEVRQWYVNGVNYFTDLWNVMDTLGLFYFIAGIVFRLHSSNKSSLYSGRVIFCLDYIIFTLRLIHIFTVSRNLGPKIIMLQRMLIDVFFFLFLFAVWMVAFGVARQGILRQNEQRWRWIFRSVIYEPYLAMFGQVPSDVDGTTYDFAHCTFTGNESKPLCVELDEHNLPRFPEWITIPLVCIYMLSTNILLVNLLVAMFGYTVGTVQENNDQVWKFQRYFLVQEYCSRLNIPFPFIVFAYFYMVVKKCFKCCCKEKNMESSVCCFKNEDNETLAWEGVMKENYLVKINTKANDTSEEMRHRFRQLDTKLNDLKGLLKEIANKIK

IC50 [nM] | Compound
< 500 | Cc1cc(C(=O)CN2C(=O)NC3(CCC(F)(F)CC3)C2=O)sc1-c1cccc(C(N)=O)c1 [Example 14-18]
< 100 | Cc1cc(C(=O)CN2C(=O)NC3(CCC(F)(F)CC3)C2=O)ccc1-c1ccccc1 [Example 13-14]
< 100 | N#Cc1ccccc1-c1ccc(C(=O)CN2C(=O)NC3(CCCCC3)C2=O)cn1 [Example 9-8]
< 10 | Cc1ccncc1-c1sc(C(=O)CN2C(=O)NC3(CCC(F)(F)CC3)C2=O)cc1C [Example 14-5]
< 500 | Cn1c(C(=O)CN2C(=O)NC3(CCC(F)(F)CC3)C2=O)ccc1-c1cncc(F)c1 [Example 16-31]
< 100 | O=C(CN1C(=O)NC2(CCC(F)(F)CC2)C1=O)c1ccc(-c2cncc(F)c2)c(Cl)c1 [Example 13-26]
< 10 | O=C(CN1C(=O)NC2(CCC(F)(F)CC2)C1=O)c1ccc(-c2cccc3[nH]ccc23)nc1 [Example 9-10]
< 100 | O=C(CN1C(=O)NC2(CCC(F)(F)CC2)C1=O)c1ccc(N2CCOc3ccccc32)cc1 [Example 19-20]
< 100 | N#Cc1ccccc1-c1ccc(C(=O)CN2C(=O)NC3(CCC(F)(F)CC3)C2=O)cc1Cl [Example 13-25]
< 500 | Cc1cccnc1Oc1ccc(C(=O)CN2C(=O)NC3(CCC(F)(F)CC3)C2=O)cc1 [Example 21-3]
< 500 | Cc1sc(C(=O)CN2C(=O)NC3(CCC(F)(F)CC3)C2=O)c(C)c1-c1ccccc1 [Example 15-8]
< 500 | O=C(CN1C(=O)NC2(CCC(F)(F)CC2)C1=O)c1ccc(Sc2ccccc2)nc1 [Example 20-9]
< 10 | Cc1ncccc1-c1cnc(C(=O)CN2C(=O)NC3(CCC(F)(F)CC3)C2=O)cn1 [Example 12-1]
< 100 | N#Cc1ccccc1-c1c(F)cc(C(=O)CN2C(=O)NC3(CCC(F)(F)CC3)C2=O)cc1F [Example 13-31]
< 100 | Cc1cc(C(=O)CN2C(=O)NC3(CCC(F)(F)CC3)C2=O)sc1-c1cncc(F)c1 [Example 14-17]
< 100 | N#Cc1cccc(-c2ccc(C(=O)CN3C(=O)NC4(CCCCC4)C3=O)cn2)c1 [Example 9-9]
< 100 | Cc1cc(C(=O)CN2C(=O)NC3(CCC(F)(F)CC3)C2=O)ccc1-c1cccc(F)c1 [Example 13-17]
< 10 | Cc1ccc2nc(C(F)F)n(-c3ccc(C(=O)CN4C(=O)NC5(CCC(F)(F)CC5)C4=O)cc3)c2n1 [Example 24-5]
< 500 | Cc1ccnc(Oc2ccc(C(=O)CN3C(=O)NC4(CCC(F)(F)CC4)C3=O)cc2)c1 [Example 21-4]
< 500 | O=C(CN1C(=O)NC2(CCC(F)(F)CC2)C1=O)c1ccc(-c2cncc3[nH]ncc23)nc1 [Example 9-27]
< 100 | Cc1cc(C(=O)CN2C(=O)NC3(CCC(F)(F)CC3)C2=O)n(C)c1-c1cccnc1 [Example 16-11]
< 500 | Cc1cc2ccccc2n1-c1ccc(C(=O)CN2C(=O)NC3(CCC(F)(F)CC3)C2=O)cc1 [Example 19-19]
< 500 | O=C(CN1C(=O)NC2(CCC(F)(F)CC2)C1=O)c1ccc(-n2c(CO)nc3cccnc32)cc1 [Example 28-4, 8,8-difluoro-3-(2-(4-(2-(hydroxymethyl)-3H-imidazo[4,5-b]pyridin-3-yl)phenyl)-2-oxoethyl)-1,3-diazaspiro[4.5]decane-2,4-dione]
< 100 | O=C(CN1C(=O)NC2(CCC(F)(F)CC2)C1=O)c1ccc(N2CCCc3ccccc32)nc1 [Example 19-11]
< 100 | CC(=O)c1cccc(-c2c(C)cc(C(=O)CN3C(=O)NC4(CCC(F)(F)CC4)C3=O)n2C)c1 [Example 16-20]
< 500 | N#Cc1nccnc1-c1ccc(C(=O)CN2CC3(CCC(F)(F)CC3)OC2=O)cc1 [Example 7-15]
< 100 | Cc1cccc(N(C)c2ccc(C(=O)CN3C(=O)NC4(CCCCC4)C3=O)cn2)c1 [Example 19-1, 3-(2-(6-(methyl(m-tolyl)amino)pyridin-3-yl)-2-oxoethyl)-1,3-diazaspiro[4.5]decane-2,4-dione]
< 100 | Cc1nc(C(=O)CN2C(=O)NC3(CCC(F)(F)CC3)C2=O)n(C)c1-c1cccc2ccncc12 [Example 17-9]
< 500 | Cc1ccnc(Oc2ccc(C(=O)CN3C(=O)NC4(CCC(F)(F)CC4)C3=O)cc2)n1 [Example 21-7]
< 500 | N#Cc1cccc(-c2ccc(C(=O)CN3C(=O)NC4(CCC(F)(F)CC4)C3=O)cc2Cl)c1 [Example 13-68]

More lines, now with the values behind:

Compound | IC50 [nM]
O=C(CN1C(=O)NC2(CCC(F)(F)CC2)C1=O)c1ccc(-c2ncnc3[nH]ncc23)cc1 [Example 6-23] | < 100
N#Cc1nccnc1-c1ccc(C(=O)CN2C(=O)NC3(CCC(F)(F)CC3)C2=O)cc1 [Example 6-3] | < 10
Cc1cc(C(=O)CN2C(=O)NC3(CCCCC3)C2=O)c(C)n1-c1cccc(OCC2CC2)n1 [Example 3-28, 3-(2-(1-(6-(cyclopropylmethoxy)pyridin-2-yl)-2,5-dimethyl-1H-pyrrol-3-yl)-2-oxoethyl)-1,3-diazaspiro[4.5]decane-2,4-dione] | < 500
O=C(CN1C(=O)NC2(CCC(F)(F)CC2)C1=O)c1ccc(-c2ccccc2O)cc1 [Example 6-19] | < 100
Cc1cncc(-n2c(C)cc(C(=O)CN3C(=O)NC4(CC5CCC4C5)C3=O)c2C)c1 (stereo not drawn) [Example 3-10] | < 100
O=C(CN1C(=O)NC2(CCC(F)(F)CC2)C1=O)c1ccc(-c2ncnc3ncccc23)cc1 [Example 6-59] | < 500
N#Cc1cnccc1-c1ccc(C(=O)CN2C(=O)NC3(CCC(F)(F)CC3)C2=O)cc1 [Example 6-98] | < 100
Nc1cnccc1-c1ccc(C(=O)CN2C(=O)NC3(CCC(F)(F)CC3)C2=O)cc1 [Example 6-113] | < 500
O=C(CN1C(=O)NC2(CCC(F)(F)CC2)C1=O)c1ccc(-c2nccc3cn[nH]c23)cc1 [Example 6-62] | < 500
COc1cc(C(=O)CN2C(=O)NC3(CCC(F)(F)CC3)C2=O)ccc1-c1ccccc1C#N [Example 5-5] | < 100
N#Cc1ccncc1-c1ccc(C(=O)CN2C(=O)NC3(CCC(F)(F)CC3)C2=O)cc1 [Example 6-16] | < 100
O=C(CN1C(=O)NC2(CCC(F)(F)CC2)C1=O)c1ccc(Oc2ccccn2)cc1 [Example 5-17] | < 100
O=C(CN1C(=O)NC2(CCC(F)(F)CC2)C1=O)c1ccc(-c2cccnc2OCCO)cc1 [Example 6-17] | < 100
Cc1c(N)cncc1-c1ccc(C(=O)CN2C(=O)NC3(CCC(F)(F)CC3)C2=O)cc1 [Example 6-76] | < 100
O=C(CN1C(=O)NC2(CCC(F)(F)CC2)C1=O)c1ccc(-n2c(CO)nc3ccccc32)cc1 [Example 5-15, 8,8-difluoro-3-(2-(4-(2-(hydroxymethyl)-1H-benzo[d]imidazol-1-yl)phenyl)-2-oxoethyl)-1,3-diazaspiro[4.5]decane-2,4-dione] | < 100
O=C(CN1C(=O)NC2(CCC(F)(F)CC2)C1=O)c1ccc(-c2cccnc2N2CC(O)C2)cc1 [Example 6-48] | < 500
COc1cncc(-c2ccc(C(=O)CN3C(=O)NC4(CCC(F)(F)CC4)C3=O)cc2)c1 [Example 6-90] | < 500
Cc1nc(C(=O)CN2C(=O)NC3(CCC(F)(F)CC3)C2=O)c(C)n1-c1cccc(Cl)c1 [Example 2-14] | < 100
